# Source: patent US20110160123A1, “TARGETING THE EFFLUX SYSTEMS OF MYCOBACTERIUM TUBERCULOSIS” (THE UAB RESEARCH FOUNDATION, priority 2008, published 2011)
# Read-outs that look alike come from different tables or passages of the source.
# How the values were obtained:
# [1] = tested on: M. bovis BCG ML1034 mutant (bcg0231/rv0194 overexpressed); type: cell-based
# [2] = tested on: M. smegmatis overexpressing the rv0194 gene of M. tuberculosis (SMR5/pML655); assay: microbe, parasite or virus in culture; type: cell-based; details: for MIC: Mycolicibacterium smegmatis
# [3] = tested on: M. tuberculosis mctB mutant ML256 (Δrv1698); type: cell-based
# [4] = tested on: M. bovis BCG transposon mutants; type: cell-based
# [5] = tested on: Mtb mctB mutant ML256; parameters: species or system mice; details: mouse, in vivo
# [6] = read-out: MIC rv0194 overexpression
Structure (SMILES),MIC ML1034 [1],Resistance Factor [1],Resistance Factor [2],"MIC [2, 6]",also measured
O=C(N[C@H](CO)[C@H](O)c1ccc([N+](=O)[O-])cc1)C(Cl)Cl [Chloramphenicol],512 µg/mL,64,1,32 µg/mL,–
CN(C)[C@@H]1C(=O)C(C(N)=O)=C(O)[C@@]2(O)C(=O)C3=C(O)c4c(O)cccc4[C@@](C)(O)[C@H]3C[C@@H]12 [Tetracyclin],>16 µg/mL,–,1,–,MIC rv0194 overexpression [2]: 0.3 µg/mL
CC[C@H]1OC(=O)[C@H](C)[C@@H](O[C@H]2C[C@@](C)(OC)[C@@H](O)[C@H](C)O2)[C@H](C)[C@@H](O[C@@H]2O[C@H](C)C[C@H](N(C)C)[C@H]2O)[C@](C)(O)C[C@@H](C)C(=O)[C@H](C)[C@@H](O)[C@]1(C)O [Erythromycin],–,–,4,10 µg/mL,–
CO[C@@H]1[C@@H](OC(N)=O)[C@@H](O)[C@H](Oc2ccc3c(O)c(NC(=O)c4ccc(O)c(CC=C(C)C)c4)c(=O)oc3c2C)OC1(C)C [Novobiocin],–,–,2,8 µg/mL,–
Cc1cc(-c2ccc(S(=O)(=O)O)cc2)c2ccc3c(-c4ccc(S(=O)(=O)O)cc4)cc(C)nc3c2n1 [Bathocuproine disulfonate],–,–,–,–,protection from the toxic effects of CuSO4 [3]: protects Mtb from the toxic effects of CuSO4
CC1(C)S[C@@H]2[C@H](NC(=O)[C@H](N)c3ccccc3)C(=O)N2[C@H]1C(=O)O [Ampicillin],–,32,2,250 µg/mL,"MIC of amp. [1]: 2000 mg/mL; MIC of ampicillin, completely resistant mutants [4]: ≥ 2,000 μg/ml; MIC of ampicillin, mutants excluded from further analysis [4]: lower than 250 μg/ml; MICs of ampicillin for all transposon mutants [4]: higher than 62.5 μg/ml"
O=S(=O)([O-])[O-].[Cu+2] [CuSO4],–,–,–,–,growth rate on plates with CuSO4 [3]: severely reduced the growth rate; effect of dietary CuSO4 on persistence of the mctB mutant in lungs [5]: aggravated the persistence defect
CC[n+]1c(-c2ccccc2)c2cc(N)ccc2c2ccc(N)cc21 [ethidium bromide],–,–,–,–,MIC ([2]; read-out: MIC of ethidium bromide): 2.5 µg/mL
[H]/N=C(/N)N[C@H]1[C@H](O)[C@@H](O)[C@H](O[C@@H]2O[C@@H](C)[C@](O)(C=O)[C@H]2O[C@@H]2O[C@@H](CO)[C@H](O)[C@@H](O)[C@@H]2NC)[C@@H](N/C(N)=N\[H])[C@@H]1O [Streptomycin],16 µg/mL,32,–,–,–
CN[C@H](CC(C)C)C(=O)N[C@H]1C(=O)N[C@@H](CC(N)=O)C(=O)N[C@H]2C(=O)N[C@H]3C(=O)N[C@H](C(=O)N[C@H](C(=O)O)c4cc(O)cc(O)c4-c4cc3ccc4O)[C@H](O)c3ccc(c(Cl)c3)Oc3cc2cc(c3O[C@@H]2O[C@H](CO)[C@@H](O)[C@H](O)[C@H]2O[C@H]2C[C@](C)(N)[C@H](O)[C@H](C)O2)Oc2ccc(cc2Cl)[C@H]1O [Vancomycin],20 µg/mL,–,2,2.5 µg/mL,–
